Where two headings read alike, the source gives them in different places.
Assays:
[1] = logP (acidic, pH 2.3, and neutral); format: physicochemical; conditions: for logP: read-out: logP neutr.
Puccinia recondita = experiment: Puccinia test (wheat) / protective; format: in vivo; conditions: 240 h, 1000 ppm active ingredient, protective spray, evaluated 10 days after inoculation, 0 % = control, 100 % = no infestation, read-out: Wirkungsgrad
Text: (§1) Zur Herstellung einer zweckmäßigen Wirkstoffzubereitung vermischt man 1 Gewichtsteil Wirkstoff mit den angegebenen Mengen Lösungsmittel und Emulgator und verdünnt das Konzentrat mit Wasser auf die gewünschte Konzentration.
Zur Prüfung auf protektive Wirksamkeit werden junge Pflanzen mit der Wirkstoffzubereitung in der angegebenen Aufwandmenge besprüht. Nach Antrocknen des Spritzbelages werden die Pflanzen mit einer Konidiensuspension von Puccinia recondita besprüht. Die Pflanzen verbleiben 48 Stunden bei 20°C und 100 % relativer Luftfeuchtigkeit in einer Inkubationskabine.
Die Pflanzen werden dann in einem Gewächshaus bei einer Temperatur von ca. 20°C und einer relativen Luftfeuchtigkeit von 80 % aufgestellt, um die Entwicklung von Rostpusteln zu begünstigen.
10 Tage nach der Inokulation erfolgt die Auswertung. Dabei bedeutet 0 % ein Wirkungsgrad, der demjenigen der Kontrolle entspricht, während ein Wirkungsgrad von 100 % bedeutet, daß kein Befall beobachtet wird.

[2] = tested on: Erysiphe graminis f. sp. hordei; experiment: Erysiphe test (barley) / protective; format: in vivo; conditions: Blumeria graminis, 168 h, 500 ppm active ingredient, evaluated 7 days after inoculation, 0 % = control, 100 % = no infestation, read-out: Wirkungsgrad
Text: as §1
Zur Prüfung auf protektive Wirksamkeit bespritzt man junge Getreidepflanzen mit der Wirkstoffzubereitung in der angegebenen Aufwandmenge. 1 Tag nach der Behandlung werden die Pflanzen mit Sporen von Erysiphe graminis f. sp. hordei inokuliert. Anschließend werden die Pflanzen in einem Gewächshaus bei 70 % relativer Luftfeuchtigkeit und einer Temperatur von 18°C aufgestellt.
7 Tage nach der Inokulation erfolgt die Auswertung. Dabei bedeutet 0 % ein Wirkungsgrad, der demjenigen der Kontrolle entspricht, während ein Wirkungsgrad von 100 % bedeutet, daß kein Befall beobachtet wird.

Podosphaera leucotricha = experiment: Podosphaera test (apple) / protective; format: in vivo; conditions: 240 h, 100 ppm active ingredient, evaluated 10 days after inoculation, 0 % = control, 100 % = no infestation, read-out: Wirkungsgrad
Text: as §1
(§2) Zur Prüfung auf protektive Wirksamkeit werden junge Pflanzen mit der Wirkstoffzubereitung in der angegebenen Aufwandmenge besprüht. Nach Antrocknen des Spritzbelages werden die Pflanzen mit einer wäßrigen Sporensuspension des Apfelmehltauerregers Podosphaera leucotricha inokuliert. Die Pflanzen werden dann im Gewächshaus bei ca. 23°C und einer relativen Luftfeuchtigkeit von ca. 70% aufgestellt.
(§3) 10 Tage nach der Inokulation erfolgt die Auswertung. Dabei bedeutet 0% ein Wirkungsgrad, der demjenigen der Kontrolle entspricht, während ein Wirkungsgrad von 100% bedeutet, daß kein Befall beobachtet wird.

Sphaerotheca fuliginea = experiment: Sphaerotheca test (cucumber) / protective; format: in vivo; conditions: Podosphaera fuliginea, 168 h, 100ppm active ingredient, evaluated 7 days after inoculation, 0 % = control, 100 % = no infestation, read-out: Wirkungsgrad
Text: as §1
as §2, with “von Sphaerotheca fuliginea” for “des Apfelmehltauerregers Podosphaera leucotricha”, “dann” for “dann im Gewächshaus”, “70% im Gewächshaus” for “70%”
7 Tage nach der Inokulation erfolgt die Auswertung. Dabei bedeutet 0% ein Wirkungsgrad, der demjenigen der Kontrolle entspricht, während ein Wirkungsgrad von 100% bedeutet, daß kein Befall beobachtet wird.

Leptosphaeria nodorum = Leptosphaeria nodorum test (wheat) / protective; format: in vivo; conditions: 500 ppm active ingredient, evaluated 12-14 days after inoculation, 0 % = control, 100 % = no infestation
Text: as §1
Zur Prüfung auf protektive Wirksamkeit bespritzt man junge Weizenpflanzen mit der Wirkstoffzubereitung in der angegebenen Aufwandmenge. 1 Tag nach der Behandlung werden die Pflanzen mit einer wäßrigen Sporensuspension von Leptosphaeria nodorum inokuliert und verbleiben dann 48h bei 100% rel. Luftfeuchte und 20°C. Anschließend werden die Pflanzen in einem Gewächshaus bei 80 % rel. Luftfeuchtigkeit und einer Temperatur von 22°C aufgestellt.
12-14 Tage nach der Inokulation erfolgt die Auswertung. Dabei bedeutet 0 % ein Wirkungsgrad, der demjenigen der Kontrolle entspricht, während ein Wirkungsgrad von 100 % bedeutet, dass kein Befall beobachtet wird.

Uromyces appendiculatus = experiment: Uromyces test (bean) / protective; format: in vivo; conditions: 10ppm active ingredient, evaluated 10 days after inoculation, 0 % = control, 100 % = no infestation
Text: as §1
Zur Prüfung auf protektive Wirksamkeit werden junge Pflanzen mit der Wirkstoffzubereitung in der angegebenen Aufwandmenge besprüht. Nach Antrocknen des Spritzbelages werden die Pflanzen mit einer wäßrigen Sporensuspension des Bohnenrosterregers Uromyces appendiculatus inokuliert und verbleiben dann 1 Tag bei ca. 20°C und 100% relativer Luftfeuchtigkeit in einer Inkubations-kabine.
Die Pflanzen werden dann im Gewächshaus bei ca. 21°C und einer relativen Luftfeuchtigkeit von ca. 90% aufgestellt.
as §3

[3] = pH 2.3, acidic, read-out: logP sauer
[4] = pH 2, pH 2,3, read-out: log P (pH 2,3)

logD [1, 3]	logP ([1]; neutral)	Structure (SMILES)	pest or weed control at 1000 ppm (Puccinia recondita) [%]	pest or weed control at 500 ppm [2] [%]	also measured
2.4		CCN(C)C=Nc1cc(C)c(Oc2cc(F)cc(I)c2)cc1C [Nr. 19]	≥ 70		
2.5	6	CCN(C)C=Nc1cc(C)c(Oc2cc(Br)cc(Br)c2)cc1C [Nr. 4]	≥ 70	≥ 70	pest or weed control at 100 ppm (Podosphaera leucotricha): ≥ 70%; pest or weed control at 100 ppm (Sphaerotheca fuliginea): ≥ 70%
2.37	7.4	CCCN(C)C=Nc1cc(C)c(Oc2cc(F)cc(Br)c2)cc1C [Nr. 14]	≥ 70	≥ 70	
2.29		CCN(C)C=Nc1cc(C)c(Oc2ccc(Cl)c(I)c2)cc1C [Nr. 25]	≥ 70		Wirkungsgrad (Leptosphaeria nodorum): ≥ 70%; pest or weed control at 100 ppm (Podosphaera leucotricha): ≥ 70%
2.37	5.7	Cc1cc(Oc2cc(F)cc(Br)c2)c(C)cc1N=CN1CCCC1 [Nr. 13]	≥ 70	≥ 70	
2.6	6.8	Cc1cc(Oc2cc(F)cc(I)c2)c(C)cc1N=CN1CCCCC1 [Nr. 21]	≥ 70		Wirkungsgrad (Leptosphaeria nodorum): ≥ 70%
2.26	5.6	Cc1cc(Oc2cc(F)cc(Cl)c2)c(C)cc1N=CN1CCCC1 [Nr. 10]			
2.67	6.1	CCN(C)C=Nc1cc(C)c(Oc2ccc(Br)c(I)c2)cc1C [Nr. 27]			Wirkungsgrad (Leptosphaeria nodorum): ≥ 70%
2.29	5.7	CCN(C)C=Nc1cc(C)c(Oc2ccc(F)c(Br)c2)cc1C [Nr. 23]	≥ 70		pest or weed control at 100 ppm (Sphaerotheca fuliginea): ≥ 70%; Wirkungsgrad (Uromyces appendiculatus): ≥ 70%

Further lines, the molecule ahead of its results:

Structure (SMILES)	logD [1, 3]	logP ([1]; neutral)	pest or weed control at 1000 ppm (Puccinia recondita) [%]	pest or weed control at 500 ppm [2] [%]	also measured
Cc1cc(Oc2cc(F)cc(I)c2)c(C)cc1N=CN1CCCC1 [Nr. 22]	2.46	6.6			
CCN(C)C=Nc1cc(C)c(Oc2cc(F)cc(Br)c2)cc1C [Nr. 3]	2.29	5.8	≥ 70	≥ 70	Wirkungsgrad (Leptosphaeria nodorum): ≥ 70%; pest or weed control at 100 ppm (Podosphaera leucotricha): ≥ 70%; pest or weed control at 100 ppm (Sphaerotheca fuliginea): ≥ 70%; Wirkungsgrad (Uromyces appendiculatus): ≥ 70%
CCCN(C)C=Nc1cc(C)c(Oc2cc(F)cc(Br)c2)cc1C [Nr. 28]					logP sauer ([1]; acidic): 2,91; logP neutr. ([1]; neutral): 6,9
Cc1cc(Oc2cc(F)cc(Cl)c2)c(C)cc1N=CN1CCCCC1 [Nr. 9]	2.42	6.3	≥ 70	≥ 70	pest or weed control at 100 ppm (Podosphaera leucotricha): ≥ 70%; pest or weed control at 100 ppm (Sphaerotheca fuliginea): ≥ 70%
Cc1cc(Oc2ccc(Cl)c(I)c2)c(C)cc1N=CN1CCCCC1 [Nr. 26]	2.52				Wirkungsgrad (Leptosphaeria nodorum): ≥ 70%
Cc1cc(Oc2ccc(Cl)c(I)c2)c(C)cc1N=CN(C)C(C)C [Nr. 24]	2.4	6.2	≥ 70		Wirkungsgrad (Leptosphaeria nodorum): ≥ 70%; pest or weed control at 100 ppm (Podosphaera leucotricha): ≥ 70%; pest or weed control at 100 ppm (Sphaerotheca fuliginea): ≥ 70%; Wirkungsgrad (Uromyces appendiculatus): ≥ 70%
Cc1cc(Oc2ccc(Cl)c(Br)c2)c(C)cc1N=CN1CCCC1 [Nr. 18]	2.56	6.6			
CCCN(C)C=Nc1cc(C)c(Oc2ccc(Cl)c(Br)c2)cc1C [Nr. 17]	2.64	6.6			
CCN(C)C=Nc1cc(C)c(Oc2cc(Cl)cc(Br)c2)cc1C [Nr. 6]	2.56	6.4	≥ 70	≥ 70	pest or weed control at 100 ppm (Podosphaera leucotricha): ≥ 70%; pest or weed control at 100 ppm (Sphaerotheca fuliginea): ≥ 70%
Cc1cc([N+](=O)[O-])c(C)cc1Oc1ccc(Cl)c(Cl)c1 [4-(3,4-Dichlorphenoxy)-2,5-dimethylnitrobenzol]					logD [1, 4]: 5.19
Cc1cc(Oc2cc(Cl)cc(Br)c2)c(C)cc1N=CN(C)C(C)C [Nr. 7]	2.7	6.8	≥ 70	≥ 70	pest or weed control at 100 ppm (Podosphaera leucotricha): ≥ 70%; pest or weed control at 100 ppm (Sphaerotheca fuliginea): ≥ 70%; Wirkungsgrad (Uromyces appendiculatus): ≥ 70%
Cc1cc(Oc2cc(Br)cc(Br)c2)c(C)cc1N=CN(C)C(C)C [Nr. 5]	2.62	6.4	≥ 70	≥ 70	
CCCN(C)C=Nc1cc(C)c(Oc2cc(F)cc(I)c2)cc1C [Nr. 20]	2.61	6.6			
Cc1cc(Oc2cc(F)cc(Br)c2)c(C)cc1N=CN1CCCCC1 [Nr. 12]	2.55	6.5	≥ 70	≥ 70	
CCCN(C)C=Nc1cc(C)c(Oc2cc(F)cc(Cl)c2)cc1C [Nr. 11]	2.39	6.1	≥ 70	≥ 70	pest or weed control at 100 ppm (Podosphaera leucotricha): ≥ 70%; pest or weed control at 100 ppm (Sphaerotheca fuliginea): ≥ 70%
Cc1cc(Oc2cc(F)cc(Br)c2)c(C)cc1N=CN1CC(C)OC(C)C1 (stereo not shown) [Nr. 29]	2.59	5.8			
CCN(C)C=Nc1cc(C)c(Oc2cc(F)cc(Cl)c2)cc1C [Nr. 8]	2.21	5.6	≥ 70	≥ 70	
Cc1cc(Oc2ccc(Cl)c(Br)c2)c(C)cc1N=CN1CCCCC1 [Nr. 16]	2.66	6.9	≥ 70		
CCN(C)C=Nc1cc(C)c(Oc2ccc(Cl)c(Cl)c2)cc1C [Nr. 30, N-Ethyl-N-methyl-N'-[4-(3,4-dichlorphenoxy)-2,5-dimethylphenyl]formamidin]					logD [1, 4]: 2.48
CCN(C)C=Nc1cc(C)c(Oc2ccc(Cl)c(Br)c2)cc1C [Nr. 15]	2.23	6.1	≥ 70		Wirkungsgrad (Leptosphaeria nodorum): ≥ 70%
Cc1cc(Oc2ccc(Cl)c(Cl)c2)c(C)cc1N [4-(3,4-Dichlorphenoxy)-2,5-dimethylanilin]					logD [1, 4]: 3.51
CCN(C)C=Nc1cc(C)c(Oc2ccc(F)c(F)c2)cc1C [Nr. 2]	2.37	6.2			

From patent EP1969933A1, “Di-halogen phenoxy phenylamidines and their use as fungicides” (Bayer CropScience AG, priority 2007, dated 2008)
